Data: patent US7919101B2 (priority 2008, dated 2011)
“And” between values parts separate entries of the source, which are not always exact repeats. Equal values may be shown once. Read-outs that look alike come from different tables or passages of the source. Residues, ends and D or L forms follow the SMILES beside them.

What was measured:
HIV-1 NL4-3D36G = experiment: Inhibition of infection by T-20-sensitive strain NL4-3D36G; type: cell-based; details: for Dose reduction: NL4-3D36G
Protocol: 2. Inhibition of HIV infection as measured by luciferase assay. The inhibitory activity of fusion/entry inhibitors on HIV infection in TZM-bl cells was determined by using a luciferase assay (Wei X et al. Antimicrob. Agents Chemother. 46:1896-1905, 2002). Briefly, 50 μl of a compound at graded concentration in triplicate were incubated with an equal volume of an HIV-1 isolate at 0.01 multiplicity of infection (MOI) at 37° C. for 30 min, followed by addition of the mixture to 100 μl TZM-bl cells (1×10^5/ml) that were pre-cultured in a 96-well plate at 37° C. overnight. After further culture at 37° C. for 3 days, the cells were harvested and lyzed with 50 μl lysing reagent. The luciferase activity was analyzed using a luciferase kit (Promega Corp.) and a luminometer (Model: Ultra […], Tecan) according to the manufacture's instruction. The percent inhibition of cell fusion by a compound as well as EC50 and EC90 values were calculated using the software CalcuSyn.
3. Inhibition of HIV replication as measured by p24 antigen production. The inhibitory activity of fusion/entry inhibitors on HIV-1 infection as measured by p24 antigen production was determined as previously described (Zhao Q et al. AIDS Res Hum Retroviruses 18:989-997, 2002). In brief, 1×10^4 MT-2 cells were infected with an HIV-1 strain (100 TCID50) in 200 μl RPMI 1640 medium containing 10% FBS in the presence or absence of testing compounds at graded concentrations overnight. Then the culture supernatants were removed and fresh media containing no testing compounds were added. On the fourth day post-infection, 100 μl of culture supernatants were collected from each well, mixed with equal volumes of 5% Triton X-100 and assayed for p24 antigen, which was quantitated by ELISA. Briefly, wells of polystyrene plates were coated with HIV immunoglobulin (HIVIG, prepared from plasma of HIV-seropositive donors with high neutralizing titers against HIV-1IIIB), in 0.085 M carbonate-bicarbonate buffer (pH 9.6) at 4° C. overnight, followed by washes with washing buffer (0.01 M PBS containing 0.05% Tween-20) and blocking with PBS containing 1% dry fat-free milk. Virus lysates were added to the wells and incubated at 37° C. for 1 hr. […] Reactions were terminated by addition of 1N H2SO4. Absorbance at 450 nm was recorded in an ELISA reader (Ultra 384, TECAN). Recombinant protein p24, purchased from US Biological, was included for establishing standard dose response curves. Each sample was tested in triplicate. The percentage of inhibition of p24 production was calculated as previously described (Neurath A R et al. BMC Infect Dis 2:6, 2002).
(§1) 4. Synergy analysis. […] In all analyses, HIV fusion/entry inhibitors were assumed to act noncompetitively, which led to a more conservative estimate of synergy. CI values<1 and >1 indicate synergy and antagonism, respectively. Dose reductions were calculated as the compound concentrations required for inhibition of HIV-1 replication when the compound was used alone and in combination. The statistic analysis was performed by the One-Way Analysis of Variance (One-Way ANOVA) method using Origin 6.1 software.

[1] = tested on: HIV-1-mediated cell-cell fusion (H9/HIV-1IIIB cells and MT-2 cells); experiment: HIV-1-mediated cell-cell fusion, dye transfer assay; type: cell-based
Protocol: The inhibitory activities of the compounds on HIV-induced cell-cell fusion were determined using a dye transfer assay (Jiang S et al. Proc SPIE 3926:212-219, 2000). Briefly, H9/HIV-1IIIB cells were pre-labeled with a fluorescent dye, Calcein AM (Molecular Probes, Inc.), and incubated with a testing compound at a graded concentration at 37° C. for 30 min in a 96-well cell culture plate. Then the CD4^+ MT-2 cells were added to the H9/HIV-1IIIB cells at a ratio of 10:1, followed by incubation at 37° C. for 2 hrs. The fused and unfused calcein-labeled HIV-1-infected cells were counted under an inverted fluorescence microscope with an eyepiece micrometer disc.

[2] = tested on: HIV-1 93IN101 (subtype C, R5); details: for Dose reduction: 93IN101
Protocol: Inhibitory activity of fusion/entry inhibitors on infection by a primary HIV-1 isolate was determined as previously described (Jiang S et al. Antimicrob Agents Chemother 48:4349-4359, 2004). Peripheral blood mononuclear cells (PBMCs) were isolated from the blood of healthy donors by standard density gradient centrifugation using Histopaque-1077 (Sigma). The cells were plated in 75 cm^2 plastic flasks and incubated at 37° C. for 2 hrs. The nonadherent cells were collected and resuspended at 5×10^6 in 10 ml RPMI-1640 medium containing 10% FBS, 5 μg/ml PHA (phytohemagglutinin) and 100 U/ml IL-2 (Sigma), followed by incubation at 37° C. for 3 days. The PHA-stimulated cells were infected with a primary HIV-1 isolates at 0.01 MOI in the absence or presence of a compound at graded concentrations. Culture media were changed every 3 days. The supernatants were collected 7 days post-infection and tested for p24 antigen by ELISA as described above. The percent inhibition of p24 production and EC50 values were calculated as described above.
as §1

[3] = in combination T-20:T-1144 (4:1)
[4] = in combination T-20:T-1144 (4:1) vs alone
[5] = in combination T-20:T-1249:T-1144 (4:1:1)
[6] = in combination T-20:T-1249:T-1144 (4:1:1) vs alone
[7] = in combination T-1144:C34 (2:1)
[8] = in combination T-1144:C34 (2:1) vs alone
[9] = in combination T-1249:T-1144 (1:1)
[10] = in combination T-1249:T-1144 (1:1) vs alone

CC[C@H](C)[C@H](NC(=O)[C@H](C)NC(=O)[C@H](CCCNC(=N)N)NC(=O)[C@H](CC(=O)O)NC(=O)[C@H](Cc1c[nH]c2ccccc12)NC(=O)[C@H](C)NC(=O)[C@H](CCC(=O)O)NC(=O)[C@H](Cc1c[nH]c2ccccc12)NC(=O)[C@@H](NC(=O)[C@@H](NC(C)=O)[C@@H](C)O)[C@@H](C)O)C(=O)N[C@@H](C)C(=O)N[C@@H](CCC(=O)O)C(=O)N[C@@H](Cc1ccc(O)cc1)C(=O)N[C@@H](C)C(=O)N[C@@H](C)C(=O)N[C@@H](CCCNC(=N)N)C(=O)N[C@H](C(=O)N[C@@H](CCC(=O)O)C(=O)N[C@@H](C)C(=O)N[C@@H](CC(C)C)C(=O)N[C@@H](CC(C)C)C(=O)N[C@@H](CCCNC(=N)N)C(=O)N[C@@H](C)C(=O)N[C@@H](CC(C)C)C(=O)N[C@@H](CCC(N)=O)C(=O)N[C@@H](CCC(=O)O)C(=O)N[C@@H](CCC(N)=O)C(=O)N[C@@H](CCC(N)=O)C(=O)N[C@@H](CCC(=O)O)C(=O)N[C@@H](CCCCN)C(=O)N[C@@H](CC(N)=O)C(=O)N[C@@H](CCC(=O)O)C(=O)N[C@@H](C)C(=O)N[C@@H](C)C(=O)N[C@@H](CC(C)C)C(=O)N[C@@H](CCCNC(=N)N)C(=O)N[C@@H](CCC(=O)O)C(=O)N[C@@H](CC(C)C)C(N)=O)[C@@H](C)CC [T-1144] (Ac-TTWEAWDRAIAEYAARIEALLRALQEQQEKNEAALREL-NH2; N-terminus and C-terminus assumed)
EC50 (HIV-1 NL4-3D36G; NL4-3D36G (T-20-sensitive), peptide alone): 5.85 nM | Dose reduction (HIV-1 NL4-3D36G; T-20+T-1249+T-1144 7:5:1): 15.81 fold | Dose reduction (HIV-1 NL4-3D36G; T-20 combined with T-1144): 13.00 fold | EC70 Concentration Mix [1, 3]: 0.008 nM | EC95 Concentration Mix [1, 3]: 0.013 nM | Potency increase at EC50 [1, 4]: 435.500 fold | Potency increase at EC70 [1, 4]: 444.250 fold | Potency increase at EC90 [1, 4]: > 438 fold and 439.455 fold | Potency increase at EC95 [1, 4]: 458.462 fold | EC70 Concentration Mix [1, 5]: 0.005 nM | EC95 Concentration Mix [1, 5]: 0.007 nM | Potency increase at EC50 [1, 6]: 653.250 fold | Potency increase at EC70 [1, 6]: 710.800 fold | Potency increase at EC90 [1, 6]: 805.667 fold | Potency increase at EC95 [1, 6]: 851.429 fold | EC90 ([1]; in combination T-20:T-1249:T-1144 (4:1:1), read-out: EC90 Concentration Mix): 0.006 nM | EC70 Concentration Mix [1, 7]: 0.408 nM | EC95 Concentration Mix [1, 7]: 0.659 nM | Potency increase at EC50 [1, 8]: 8.511 fold | Potency increase at EC70 [1, 8]: 8.711 fold | Potency increase at EC95 [1, 8]: 9.044 fold | EC90 ([1]; in combination T-1144:C34 (2:1), read-out: EC90 Concentration Mix): 0.543 nM | EC70 Concentration Mix [1, 9]: 0.232 nM | EC95 Concentration Mix [1, 9]: 0.374 nM | Potency increase at EC50 [1, 10]: 15.017 fold | Potency increase at EC70 [1, 10]: 15.319 fold | Potency increase at EC90 [1, 10]: 15.695 fold | Potency increase at EC95 [1, 10]: 15.936 fold | EC90 ([1]; in combination T-1249:T-1144 (1:1), read-out: EC90 Concentration Mix): 0.308 nM | EC70 Concentration Alone ([1]; peptide tested alone): 3.554 nM | EC95 Concentration Alone ([1]; peptide tested alone): 5.960 nM | EC50 ([1]; peptide tested alone, read-out: EC50 Concentration Alone): 2.61 nM | EC90 ([1]; peptide tested alone, read-out: EC90 Concentration Alone): 4.83 nM | Dose reduction ([2]; T-20+T-1249+T-1144 4:1:1): 24.17 fold | Dose reduction ([2]; T-20 combined with T-1144): 14.46 fold | EC50 ([2]; read-out: EC50 alone, 93IN101 (C, R5) primary isolate, peptide alone): 15.5 nM
